{
  "source": "paper doi:10.1101/2024.08.13.607785v1",
  "about": "(biorxiv, 2024)",
  "design_in_all_cases": "species or system mixed lysate of K562, MV4-11, THP-1, NCI-H1155",
  "key": {"[1]": {"target": "Tyrosine-protein kinase CSK ; CSK ; P41240 (Homo sapiens, UniProt P41240)", "sequence (P41240 whole entry)": "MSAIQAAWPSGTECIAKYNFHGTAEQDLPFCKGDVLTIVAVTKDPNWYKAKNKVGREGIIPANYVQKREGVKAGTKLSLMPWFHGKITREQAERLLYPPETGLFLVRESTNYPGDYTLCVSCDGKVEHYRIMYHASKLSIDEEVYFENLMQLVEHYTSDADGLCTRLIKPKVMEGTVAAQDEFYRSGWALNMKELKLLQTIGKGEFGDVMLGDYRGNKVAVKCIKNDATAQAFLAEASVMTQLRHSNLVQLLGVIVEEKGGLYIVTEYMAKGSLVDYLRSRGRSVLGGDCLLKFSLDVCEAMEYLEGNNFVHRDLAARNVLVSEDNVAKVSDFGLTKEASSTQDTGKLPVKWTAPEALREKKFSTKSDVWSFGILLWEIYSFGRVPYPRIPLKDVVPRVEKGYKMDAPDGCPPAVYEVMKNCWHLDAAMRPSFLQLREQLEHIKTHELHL", "settings": "binder"}, "[2]": {"target": "Serine/threonine-protein kinase LMTK2 ; LMTK2 ; Q8IWU2 (Homo sapiens, UniProt Q8IWU2)", "sequence (Q8IWU2 whole entry, one chain of several)": "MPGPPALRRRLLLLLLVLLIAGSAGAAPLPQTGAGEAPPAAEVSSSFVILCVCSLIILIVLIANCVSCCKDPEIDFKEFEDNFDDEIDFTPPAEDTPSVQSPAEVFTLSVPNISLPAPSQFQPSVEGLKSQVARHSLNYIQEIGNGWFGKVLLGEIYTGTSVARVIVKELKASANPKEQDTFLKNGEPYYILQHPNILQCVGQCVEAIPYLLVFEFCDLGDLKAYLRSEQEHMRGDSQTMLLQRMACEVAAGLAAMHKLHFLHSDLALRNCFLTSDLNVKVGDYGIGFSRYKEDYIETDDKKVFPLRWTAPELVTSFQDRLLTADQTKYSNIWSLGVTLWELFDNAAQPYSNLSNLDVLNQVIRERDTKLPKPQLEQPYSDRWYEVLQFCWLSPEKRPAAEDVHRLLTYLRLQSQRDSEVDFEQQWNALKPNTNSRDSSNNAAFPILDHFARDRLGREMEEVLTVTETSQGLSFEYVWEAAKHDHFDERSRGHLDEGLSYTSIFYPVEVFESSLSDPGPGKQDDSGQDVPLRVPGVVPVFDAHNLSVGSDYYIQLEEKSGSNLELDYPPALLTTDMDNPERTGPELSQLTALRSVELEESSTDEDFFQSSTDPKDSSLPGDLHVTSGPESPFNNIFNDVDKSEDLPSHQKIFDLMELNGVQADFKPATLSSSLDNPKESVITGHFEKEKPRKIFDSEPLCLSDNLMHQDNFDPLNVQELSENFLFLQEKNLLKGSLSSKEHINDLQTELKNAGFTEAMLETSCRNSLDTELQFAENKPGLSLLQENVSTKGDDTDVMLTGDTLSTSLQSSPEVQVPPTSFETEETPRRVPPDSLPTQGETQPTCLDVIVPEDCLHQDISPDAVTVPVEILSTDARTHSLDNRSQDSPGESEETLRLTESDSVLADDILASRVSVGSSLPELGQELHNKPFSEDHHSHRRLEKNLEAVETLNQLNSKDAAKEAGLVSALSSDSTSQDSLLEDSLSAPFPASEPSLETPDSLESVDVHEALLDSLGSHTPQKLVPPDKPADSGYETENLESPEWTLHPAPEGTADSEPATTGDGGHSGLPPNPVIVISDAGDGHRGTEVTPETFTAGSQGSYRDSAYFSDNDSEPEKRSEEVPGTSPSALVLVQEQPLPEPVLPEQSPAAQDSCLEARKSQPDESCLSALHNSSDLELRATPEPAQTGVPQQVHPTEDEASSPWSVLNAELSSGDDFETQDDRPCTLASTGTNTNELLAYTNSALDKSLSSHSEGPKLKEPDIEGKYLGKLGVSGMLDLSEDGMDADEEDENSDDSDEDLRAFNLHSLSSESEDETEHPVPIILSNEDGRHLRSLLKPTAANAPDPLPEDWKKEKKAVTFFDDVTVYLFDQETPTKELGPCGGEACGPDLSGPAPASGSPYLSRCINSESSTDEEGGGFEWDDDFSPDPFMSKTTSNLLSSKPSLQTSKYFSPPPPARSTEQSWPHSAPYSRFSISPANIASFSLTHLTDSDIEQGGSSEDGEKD", "settings": "DDA-MS residual binding; binder"}, "[3]": {"target": "LIM domain kinase 2 ; LIMK2 ; P53671 (Homo sapiens, UniProt P53671)", "sequence (P53671 whole entry, the tested form may be a part)": "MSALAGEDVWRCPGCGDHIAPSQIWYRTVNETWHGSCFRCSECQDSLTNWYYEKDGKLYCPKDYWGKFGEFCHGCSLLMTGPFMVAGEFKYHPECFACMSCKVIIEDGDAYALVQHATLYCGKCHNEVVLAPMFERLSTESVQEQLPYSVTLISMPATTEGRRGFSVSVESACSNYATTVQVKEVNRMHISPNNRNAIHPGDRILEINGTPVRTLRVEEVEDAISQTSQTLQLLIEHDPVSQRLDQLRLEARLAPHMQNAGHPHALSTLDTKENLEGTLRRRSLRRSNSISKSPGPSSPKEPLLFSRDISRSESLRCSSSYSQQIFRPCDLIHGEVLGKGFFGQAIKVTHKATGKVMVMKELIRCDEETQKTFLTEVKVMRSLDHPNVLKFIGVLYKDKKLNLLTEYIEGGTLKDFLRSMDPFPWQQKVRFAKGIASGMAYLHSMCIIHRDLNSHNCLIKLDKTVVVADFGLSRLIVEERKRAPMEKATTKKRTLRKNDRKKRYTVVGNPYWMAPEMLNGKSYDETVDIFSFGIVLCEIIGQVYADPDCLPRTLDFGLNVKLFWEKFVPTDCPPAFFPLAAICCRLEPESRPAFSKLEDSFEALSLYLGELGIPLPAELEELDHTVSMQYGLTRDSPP", "settings": "DDA-MS residual binding; binder"}, "[4]": {"target": "T1, Cyclin-G-associated kinase ; GAK ; O14976 (Homo sapiens, UniProt O14976)", "T1 sequence (O14976 1-1311)": "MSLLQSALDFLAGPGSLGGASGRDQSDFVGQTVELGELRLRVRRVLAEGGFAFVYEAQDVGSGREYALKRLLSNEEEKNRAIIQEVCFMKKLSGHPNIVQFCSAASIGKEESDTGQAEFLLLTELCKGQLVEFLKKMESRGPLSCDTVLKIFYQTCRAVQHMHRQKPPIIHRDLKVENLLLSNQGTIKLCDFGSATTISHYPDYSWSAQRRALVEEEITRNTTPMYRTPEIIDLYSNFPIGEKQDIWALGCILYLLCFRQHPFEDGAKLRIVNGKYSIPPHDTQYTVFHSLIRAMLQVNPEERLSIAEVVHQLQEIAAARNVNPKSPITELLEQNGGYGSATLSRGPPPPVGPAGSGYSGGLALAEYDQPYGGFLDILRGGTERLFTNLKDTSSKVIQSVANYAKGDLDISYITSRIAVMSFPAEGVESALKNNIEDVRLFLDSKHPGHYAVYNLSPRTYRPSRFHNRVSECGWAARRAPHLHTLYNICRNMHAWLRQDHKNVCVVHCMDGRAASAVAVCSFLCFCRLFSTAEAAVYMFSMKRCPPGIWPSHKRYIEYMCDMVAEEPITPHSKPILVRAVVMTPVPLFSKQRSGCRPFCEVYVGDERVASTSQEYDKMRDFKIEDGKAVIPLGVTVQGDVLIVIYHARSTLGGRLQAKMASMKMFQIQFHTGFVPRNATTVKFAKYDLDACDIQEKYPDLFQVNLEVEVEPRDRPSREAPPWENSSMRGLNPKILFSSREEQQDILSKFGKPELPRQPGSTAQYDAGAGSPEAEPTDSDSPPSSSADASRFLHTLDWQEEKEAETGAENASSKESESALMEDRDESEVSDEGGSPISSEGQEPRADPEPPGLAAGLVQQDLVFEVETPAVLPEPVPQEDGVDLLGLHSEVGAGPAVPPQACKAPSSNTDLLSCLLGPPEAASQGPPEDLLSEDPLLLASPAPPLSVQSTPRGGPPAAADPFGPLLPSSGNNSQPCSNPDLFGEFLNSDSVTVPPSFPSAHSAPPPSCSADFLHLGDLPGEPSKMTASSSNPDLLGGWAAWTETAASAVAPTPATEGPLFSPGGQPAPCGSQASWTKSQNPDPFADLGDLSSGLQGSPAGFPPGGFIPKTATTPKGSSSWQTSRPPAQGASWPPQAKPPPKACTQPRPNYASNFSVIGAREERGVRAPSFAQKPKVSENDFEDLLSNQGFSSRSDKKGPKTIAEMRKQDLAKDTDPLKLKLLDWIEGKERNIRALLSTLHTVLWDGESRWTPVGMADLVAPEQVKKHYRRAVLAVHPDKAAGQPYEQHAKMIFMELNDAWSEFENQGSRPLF", "settings": "DDA-MS residual binding; binder"}, "[5]": {"target": "Ephrin type-A receptor 5 ; EPHA5 ; P54756 (Homo sapiens, UniProt P54756)", "settings": "DDA-MS residual binding; binder"}, "[6]": {"target": "T2, Dual specificity mitogen-activated protein kinase kinase 3 ; MAP2K3 ; P46734 (Homo sapiens, UniProt P46734)", "T2 sequence (P46734 1-347)": "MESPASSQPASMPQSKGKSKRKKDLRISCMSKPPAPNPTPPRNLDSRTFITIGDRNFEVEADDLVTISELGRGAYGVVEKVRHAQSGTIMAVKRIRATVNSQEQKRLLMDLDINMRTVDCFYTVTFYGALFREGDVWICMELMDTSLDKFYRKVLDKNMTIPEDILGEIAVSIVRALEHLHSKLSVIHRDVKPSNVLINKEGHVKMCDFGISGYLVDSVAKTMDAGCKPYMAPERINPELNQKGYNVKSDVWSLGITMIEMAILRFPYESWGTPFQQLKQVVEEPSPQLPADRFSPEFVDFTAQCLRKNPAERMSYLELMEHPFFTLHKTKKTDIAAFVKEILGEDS", "settings": "DDA-MS residual binding; binder"}, "[7]": {"target": "Isoform 3 of Serine/threonine-protein kinase SIK3 ; SIK3-7 ; Q9Y2K2-7 (Homo sapiens, UniProt Q9Y2K2)", "settings": "DDA-MS residual binding; binder"}, "[8]": {"target": "Activated CDC42 kinase 1 ; TNK2 ; Q07912 (Homo sapiens, UniProt Q07912)", "sequence (Q07912 whole entry)": "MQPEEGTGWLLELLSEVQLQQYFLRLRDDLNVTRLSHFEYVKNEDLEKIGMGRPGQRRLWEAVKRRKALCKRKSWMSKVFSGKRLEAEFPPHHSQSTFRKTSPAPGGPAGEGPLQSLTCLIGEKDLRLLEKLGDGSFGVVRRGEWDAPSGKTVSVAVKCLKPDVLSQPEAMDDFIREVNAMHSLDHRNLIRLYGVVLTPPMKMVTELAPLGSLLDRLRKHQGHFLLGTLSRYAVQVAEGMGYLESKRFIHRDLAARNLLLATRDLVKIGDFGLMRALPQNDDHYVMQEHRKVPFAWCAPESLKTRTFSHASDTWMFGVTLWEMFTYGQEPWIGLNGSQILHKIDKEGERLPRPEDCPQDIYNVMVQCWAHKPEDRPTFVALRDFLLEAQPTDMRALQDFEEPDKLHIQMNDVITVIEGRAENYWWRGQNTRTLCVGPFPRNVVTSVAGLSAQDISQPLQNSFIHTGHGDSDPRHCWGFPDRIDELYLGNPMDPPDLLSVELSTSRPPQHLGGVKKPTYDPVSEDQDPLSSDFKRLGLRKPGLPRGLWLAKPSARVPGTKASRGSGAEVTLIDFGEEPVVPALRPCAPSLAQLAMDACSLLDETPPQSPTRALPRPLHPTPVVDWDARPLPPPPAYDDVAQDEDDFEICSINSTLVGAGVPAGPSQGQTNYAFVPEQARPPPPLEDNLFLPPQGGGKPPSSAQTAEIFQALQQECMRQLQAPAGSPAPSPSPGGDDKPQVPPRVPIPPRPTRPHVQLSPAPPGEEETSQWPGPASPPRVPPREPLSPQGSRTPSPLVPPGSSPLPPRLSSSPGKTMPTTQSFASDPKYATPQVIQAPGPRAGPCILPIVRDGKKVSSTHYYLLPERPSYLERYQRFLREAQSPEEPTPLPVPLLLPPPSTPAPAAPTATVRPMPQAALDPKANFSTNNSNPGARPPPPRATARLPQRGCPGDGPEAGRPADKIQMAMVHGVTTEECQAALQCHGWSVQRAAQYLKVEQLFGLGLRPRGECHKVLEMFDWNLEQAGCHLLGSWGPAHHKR", "settings": "DDA-MS residual binding; binder"}, "[9]": {"target": "Serine/threonine-protein kinase SIK2 ; SIK2 ; Q9H0K1 (Homo sapiens, UniProt Q9H0K1)", "sequence (Q9H0K1 whole entry, one chain of several)": "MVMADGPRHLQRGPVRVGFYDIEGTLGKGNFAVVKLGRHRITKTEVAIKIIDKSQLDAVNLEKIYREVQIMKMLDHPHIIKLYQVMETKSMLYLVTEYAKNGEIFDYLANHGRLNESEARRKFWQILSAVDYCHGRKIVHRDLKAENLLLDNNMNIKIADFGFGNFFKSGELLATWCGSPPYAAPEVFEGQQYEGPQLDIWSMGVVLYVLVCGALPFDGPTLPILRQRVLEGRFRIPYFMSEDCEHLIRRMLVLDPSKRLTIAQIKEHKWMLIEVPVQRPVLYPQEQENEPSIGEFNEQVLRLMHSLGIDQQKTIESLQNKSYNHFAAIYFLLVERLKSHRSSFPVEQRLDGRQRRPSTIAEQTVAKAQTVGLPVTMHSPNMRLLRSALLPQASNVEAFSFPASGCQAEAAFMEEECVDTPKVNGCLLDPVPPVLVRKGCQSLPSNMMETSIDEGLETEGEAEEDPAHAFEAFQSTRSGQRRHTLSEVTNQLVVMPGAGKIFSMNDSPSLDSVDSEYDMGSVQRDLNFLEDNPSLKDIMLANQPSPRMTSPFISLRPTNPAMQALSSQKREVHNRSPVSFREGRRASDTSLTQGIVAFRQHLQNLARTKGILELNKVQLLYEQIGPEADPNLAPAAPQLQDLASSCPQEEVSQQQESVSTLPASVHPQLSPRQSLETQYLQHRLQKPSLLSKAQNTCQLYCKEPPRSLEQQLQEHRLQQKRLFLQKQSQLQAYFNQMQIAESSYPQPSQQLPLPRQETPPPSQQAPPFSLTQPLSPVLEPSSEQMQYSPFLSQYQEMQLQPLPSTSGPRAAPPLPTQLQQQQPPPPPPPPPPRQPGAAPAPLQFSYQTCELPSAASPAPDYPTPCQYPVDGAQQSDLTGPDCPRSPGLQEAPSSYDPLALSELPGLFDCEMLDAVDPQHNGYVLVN", "settings": "DDA-MS residual binding; binder"}, "[10]": {"target": "Tyrosine-protein kinase Yes ; YES1 ; P07947 (Homo sapiens, UniProt P07947)", "sequence (P07947 whole entry)": "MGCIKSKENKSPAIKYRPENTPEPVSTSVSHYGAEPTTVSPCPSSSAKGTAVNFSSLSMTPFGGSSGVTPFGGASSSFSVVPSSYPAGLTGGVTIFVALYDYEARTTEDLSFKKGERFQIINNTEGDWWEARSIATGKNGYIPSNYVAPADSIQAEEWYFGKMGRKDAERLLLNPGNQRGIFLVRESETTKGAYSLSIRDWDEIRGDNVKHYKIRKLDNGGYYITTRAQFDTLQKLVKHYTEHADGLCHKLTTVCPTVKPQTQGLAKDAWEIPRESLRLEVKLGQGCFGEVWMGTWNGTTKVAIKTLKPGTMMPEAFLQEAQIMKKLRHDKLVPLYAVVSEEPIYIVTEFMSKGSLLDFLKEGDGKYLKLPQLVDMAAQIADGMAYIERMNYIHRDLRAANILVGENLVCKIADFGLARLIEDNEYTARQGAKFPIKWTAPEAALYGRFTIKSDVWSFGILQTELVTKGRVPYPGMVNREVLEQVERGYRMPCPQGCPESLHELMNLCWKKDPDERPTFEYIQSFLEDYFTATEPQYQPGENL", "settings": "binder"}},
  "data": [
    {"molecule": "Cc1nc(Nc2ncc(C(=O)Nc3c(C)cccc3Cl)s2)cc(N2CCN(CCO)CC2)n1", "note": "[dasatinib]", "values": [
      {"measurement": "DDA-MS / % Intensity (30 µM/DMSO)", "setting": "[1]", "value": 0.3688, "unit": "%"},
      {"measurement": "DDA-MS / % Intensity (30 µM/DMSO)", "setting": "[2]", "value": 9.69, "unit": "%"},
      {"measurement": "DDA-MS / % Intensity (30 µM/DMSO)", "setting": "[3]", "value": 7.37, "unit": "%"},
      {"measurement": "DDA-MS / % Intensity (30 µM/DMSO)", "setting": "[4]", "value": 1.947, "unit": "%"},
      {"measurement": "DDA-MS / % Intensity (30 µM/DMSO)", "setting": "[5]", "value": 2.68, "unit": "%"},
      {"measurement": "DDA-MS / % Intensity (30 µM/DMSO)", "setting": "[6]", "value": 35.23, "unit": "%"},
      {"measurement": "DDA-MS / % Intensity (30 µM/DMSO)", "setting": "[7]", "value": 6.597, "unit": "%"},
      {"measurement": "DDA-MS / % Intensity (30 µM/DMSO)", "setting": "[8]", "value": 3.313, "unit": "%"},
      {"measurement": "DDA-MS / % Intensity (30 µM/DMSO)", "setting": "[9]", "value": 1.826, "unit": "%"},
      {"measurement": "DDA-MS / % Intensity (30 µM/DMSO)", "setting": "[10]", "value": 0.4709, "unit": "%"}
    ]}
  ]
}
